In brackets after ≈: the same amount, converted by molar mass. Read-outs that look alike come from different tables or passages of the source.
What was measured:
[1] = test system: vancomycin resistant enterococci (VRE); test: Broth microdilution MIC50/MIC90, VRE panel; format: cell-based; conditions: Enterococcus, 10 VRE strains
B. cereus = test: Broth microdilution MIC/MBC, B. cereus; format: cell-based; conditions: Bacillus cereus; for MBC: read-out: MBC; for MIC: read-out: MIC
Excerpt: The broth microdilution technique was used, followed by subculturing on agar plates that were rhodanine—free.

B. licheniformis = test: Broth microdilution MIC/MBC, B. licheniformis; format: cell-based; conditions: Bacillus licheniformis; for MBC: read-out: MBC; for MIC: read-out: MIC
Bacillus Strains = test: Broth microdilution MIC50/MIC90 and MIC range, Bacillus strains panel; format: cell-based, Bacillus spp.; conditions: 10 Bacillus strains
Excerpt: The broth microdilution technique was used, followed by subculturing on agar plates that were rhodanine—free. […] The MICs reported represent the lowest concentration of each compound necessary to inhibit bacterial growth and the MBCs represent the lowest concentration required to reduce the initial bacterial inoculum by ≥ 99.9%.

Clostridium difficile = test: MIC against Clostridium difficile, anaerobic broth dilution; format: cell-based; conditions: Clostridioides difficile
How it was run: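 Clinical C. difficile isolates grown anaerobically 48 h at 37 °C, suspended to 0.5 McFarland and diluted 1:300 in pre-reduced supplemented Brain Heart Infusion broth. Compounds serially diluted; plates incubated anaerobically at 37 °C for 48 h. MIC = lowest concentration with no visible growth.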

Mycobacterium smegmatis = test: Broth microdilution MIC/MBC, Mycobacterium smegmatis; format: cell-based; conditions: Mycolicibacterium smegmatis, ATCC14468, M. Smegmatis ATCC 14468
P. aeruginosa = test: Broth microdilution MIC, P. aeruginosa; format: cell-based; conditions: Pseudomonas aeruginosa
Acinetobacter baumannii [2] = test: Broth microdilution MIC, Acinetobacter baumannii; format: cell-based
MRSA USA300 = test: MIC against MRSA USA300 with and without 4% human serum albumin; format: cell-based, Staphylococcus aureus; conditions: Staphylococcus aureus, read-out: MIC against MRSA USA300
How it was run: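 MIC measured in tryptic soy broth spiked with 4% HSA and without it, using CLSI broth microdilution on MRSA USA300. Value reported is the lowest concentration preventing bacterial growth.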

Acinetobacter baumannii [3] = test: MIC with/without sub-MIC colistin, Acinetobacter baumannii; format: cell-based
How it was run: (§1)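 Sub-MIC colistin or PMBN added to broth MIC tests of rhodanines and reference antibiotics against Gram-negative strains; AcrAB efflux-deficient E. coli SM1411ΔacrAB also tested.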

Salmonella Typhimurium [4] = test: MIC with/without sub-MIC colistin, Salmonella Typhimurium; format: cell-based
How it was run: as §1

Klebsiella pneumoniae = test: MIC with/without sub-MIC colistin, Klebsiella pneumoniae; format: cell-based
How it was run: as §1

Pseudomonas aeruginosa [5] = test: MIC with/without sub-MIC colistin, Pseudomonas aeruginosa; format: cell-based
How it was run: as §1

Escherichia coli O157:H7 = test: MIC with/without PMBN, Escherichia coli O157:H7; format: cell-based
How it was run: as §1

Salmonella Typhimurium [6] = test: MIC with/without PMBN, Salmonella Typhimurium; format: cell-based
How it was run: as §1

Pseudomonas aeruginosa [7] = test: MIC with/without PMBN, Pseudomonas aeruginosa; format: cell-based
How it was run: as §1

Escherichia coli Δ acrAB = test: MIC against E. coli 1411 and AcrAB efflux pump deficient E. coli SM1411Δ acrAB; format: cell-based
How it was run: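 Gram-negative MICs were determined for rhodanines alongside control antibiotics, each combined with sub-inhibitory colistin or PMBN. Further testing used the efflux-deficient E. coli SM1411ΔacrAB, missing the AcrAB multidrug pump.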

[8] = NRS201, B. cereus NRS 201 NR-2488
[9] = NCIB9375, B. licheniformis Gibson 46 (NCIB 9375) NR-2494
[10] = NRS712, B. licheniformis NRS 712 NR-2499
[11] = Salmonella enterica, ATCC 700720 / TYPHIMURIUM

In the case of `O=C(O)[C@H](Cc1ccccc1)N1C(=O)/C(=C/c2cccc(Cc3ccc(Cl)c(Cl)c3)c2)SC1=S` [Rh 3], the MIC90 ([1]; VRE, read-out: MIC 90) is reported as 8 µM (≈ 4.23 µg/mL), the MIC50 ([1]; read-out: MIC 50) is reported as 4 µM (≈ 2.11 µg/mL) and the MBC (B. cereus; B. cereus BAG1O-2 NR-28582) is reported as 4 µM (≈ 2.11 µg/mL). The MIC (B. cereus; B. cereus BAG1O-2 NR-28582) was 4 µM (≈ 2.11 µg/mL), the MBC (B. cereus; B. cereus BAG1X1-1 NR-28575) was 2 µM (≈ 1.06 µg/mL) and the MIC (B. cereus; B. cereus BAG1X1-1 NR-28575) was 2 µM (≈ 1.06 µg/mL). It also gave an MBC (B. cereus; B. cereus BAG1X2-1 NR-28578) of 4 µM (≈ 2.11 µg/mL), an MIC (B. cereus; B. cereus BAG1X2-1 NR-28578) of 4 µM (≈ 2.11 µg/mL) and an MBC (B. cereus; B. cereus G9241 NR-9564) of 4 µM (≈ 2.11 µg/mL). For the same compound, the MIC (B. cereus; B. cereus G9241 NR-9564) was 4 µM (≈ 2.11 µg/mL), the MBC (B. cereus; B. cereus VD014 NR-22141) was 4 µM (≈ 2.11 µg/mL) and the MIC (B. cereus; B. cereus VD014 NR-22141) was 4 µM (≈ 2.11 µg/mL). The MBC (B. cereus; B. cereus VD115 NR-22148) was 4 µM (≈ 2.11 µg/mL), the MIC (B. cereus; B. cereus VD115 NR-22148) was 4 µM (≈ 2.11 µg/mL) and the MBC (B. cereus; B. cereus VD148 NR-22150) was 8 µM (≈ 4.23 µg/mL). It also gave an MIC (B. cereus; B. cereus VD148 NR-22150) of 8 µM (≈ 4.23 µg/mL), an MBC (B. cereus; [8]) of 4 µM (≈ 2.11 µg/mL) and an MIC (B. cereus; [8]) of 4 µM (≈ 2.11 µg/mL). It also gave an MBC (B. licheniformis; [9]) of 2 µM (≈ 1.06 µg/mL), an MIC (B. licheniformis; [9]) of 2 µM (≈ 1.06 µg/mL) and an MBC (B. licheniformis; [10]) of 4 µM (≈ 2.11 µg/mL). It also gave an MIC (B. licheniformis; [10]) of 4 µM (≈ 2.11 µg/mL), an MIC50 (Bacillus Strains) of 4 µM (≈ 2.11 µg/mL) and an MIC90 (Bacillus Strains) of 4 µM (≈ 2.11 µg/mL). For the same compound, the MIC (Clostridium difficile; C. difficile HM-88) was 2 µM (≈ 1.06 µg/mL), the MIC (Clostridium difficile; C. difficile HM-745) was 1 µM (≈ 0.528 µg/mL) and the MIC (Clostridium difficile; C. difficile HM-746) was 2 µM (≈ 1.06 µg/mL). The MIC (Clostridium difficile; C. difficile Isolate-1 NR-13427) was 2 µM (≈ 1.06 µg/mL), the MIC (Clostridium difficile; C. difficile Toxigenic Strain P8 NR-32888) was 4 µM (≈ 2.11 µg/mL) and the MBC (Mycobacterium smegmatis; read-out: MBC) was 8 µM (≈ 4.23 µg/mL). The MIC (Mycobacterium smegmatis; read-out: MIC) was 4 µM (≈ 2.11 µg/mL), the MIC (P. aeruginosa; ATCC9721) was > 128 µM and the MIC (P. aeruginosa; ATCC15442) was > 128 µM. The MIC (Acinetobacter baumannii [2]; ATCC13345) was > 128 µM, the MIC (Acinetobacter baumannii [2]; ATCC17786) was > 128 µM and the MIC (MRSA USA300; 24 h, Media TSB + 4% HSA) was > 64 µM. The MIC (MRSA USA300; Media TSB) was 8 µM (≈ 4.23 µg/mL), the MIC (Acinetobacter baumannii [3]; Acinetobacter baumannii ATCC BAA747, colistin (+) […], read-out: MIC) was >64 µM and the MIC (Acinetobacter baumannii [3]; Acinetobacter baumannii ATCC BAA19606, colistin (+) […], read-out: MIC) was >64 µM. For the same compound, the MIC (Acinetobacter baumannii [3]; Acinetobacter baumannii, ATCCBAA747) was > 128 µM, the MIC (Acinetobacter baumannii [3]; Acinetobacter baumannii, ATCCBAA19606) was > 128 µM and the MIC (Salmonella Typhimurium [4]; Salmonella Typhimurium ATCC 700720, colistin (+) […], read-out: MIC) was >64 µM. For the same compound, the MIC (Salmonella Typhimurium [4]; [11]) was > 128 µM, the MIC (Klebsiella pneumoniae; Klebsiella pneumoniae ATCC BAA 2146, colistin (+) […]) was >64 µM and the MIC (Klebsiella pneumoniae; Klebsiella pneumoniae, BAA2146) was > 128 µM. For the same compound, the MIC (Pseudomonas aeruginosa [5]; Pseudomonas aeruginosa ATCC 921, colistin (+) […], read-out: MIC) was >64 µM, the MIC (Pseudomonas aeruginosa [5]; Pseudomonas aeruginosa, ATCC921) was > 128 µM and the MIC (Escherichia coli O157:H7; Escherichia coli O157:H7 ATCC 35150, PMBN (+) 4 μg/mL, read-out: MIC) was 8 µM (≈ 4.23 µg/mL). The MIC (Escherichia coli O157:H7; Escherichia coli O157:H7 ATCC 700728, PMBN (+) 4 μg/mL, read-out: MIC) was >64 µM, the MIC (Escherichia coli O157:H7; Escherichia coli, ATCC35150) was > 256 µM and the MIC (Escherichia coli O157:H7; Escherichia coli, ATCC700728) was > 128 µM. The MIC (Salmonella Typhimurium [6]; Salmonella Typhimurium ATCC 700720, PMBN (+) 4 μg/mL, read-out: MIC) was >128 µM, the MIC (Salmonella Typhimurium [6]; [11]) was > 128 µM and the MIC (Pseudomonas aeruginosa [7]; Pseudomonas aeruginosa ATCC 9721, PMBN (+) 4 μg/mL, read-out: MIC) was >64 µM. The MIC (Pseudomonas aeruginosa [7]; Pseudomonas aeruginosa, ATCC9721) was > 128 µM, the MIC (Escherichia coli Δ acrAB; E.coli 1411) was > 64 µM and the MIC (Escherichia coli Δ acrAB; E.coli 1411 SM (Δ acrAB, AcrAB efflux pump deficient)) was > 64 µM.
